The values that follow are results of earlier work, collected in US9474524B2, “Packaged antimicrobial medical device having improved shelf life and method of preparing same” (Ethicon, Inc., priority 2002, dated 2016).

The subject of this data set is S. aureus. The settings on record: suitable growth medium; Bhargava, H. et al, American Journal of Infection Control, June 1996.

Regarding `Oc1cc(Cl)ccc1Oc1ccc(Cl)cc1Cl` [2,4,4′-trichloro-2′-hydroxydiphenyl ether], the “minimum inhibitory concentration (MIC) against S. aureus” value is reported as 0.01 ppm.
